Experimental data published in patent US11395798B2, “O/W type emulsion” (NOF CORPORATION, priority 2015, dated 2022).

Columns and labels:
[1] = water/octanol; cited from earlier work
[2] = particle size distribution by dynamic light scattering (Zetasizer Nano ZS); format: physicochemical
Protocol: The particle size distribution of the prepared emulsion was measured by dynamic light scattering using Zetasizer Nano ZS. The measurement conditions were 1 mM emulsion (40 μL) at 25° C. As a result, in all compositions, the volume median diameter was not more than 100 nm and, when a linear head was used (i.e., the formula (I) wherein X^a and X^b are each X^1), the particle size was not more than 50 nm. The drug recovery rate was not less than 85% (FIG. 1, Table 2).
EPC and Cholesterol were mixed to achieve 1000 nmol and a PEG lipid was added. Chloroform in an amount equal to that of the lipid ethanol solution was added and the mixture was dried under a nitrogen blow. PBS (1 mL) was added to the lipid membrane after drying and the mixture was stood for 10 min and sonicated by a bath-type sonicator for 3 min to give a particle suspension. The particle size distribution of the prepared particles was measured by dynamic light scattering in the same manner as in Example 1.
The particle size distribution of the produced emulsion solution was measured by dynamic light scattering similarly to Example 1. As a result, when DOPC was used, the volume median diameter was near 40 nm irrespective of pH.
An ethanol solution containing 500 nmol as a total of cationic B-2, DOPE, and Cholesterol was prepared, and a PEG lipid was added in the above-mentioned amount. Ethanol was added to make the total amount 200 μL, and the mixture was stood at ice temperature for 15 min. A similarly ice-cooled malic acid buffer (20 mM, pH 3.0, 0-1000 mM NaCl) (200 μL) was mixed within 3 sec under vortex. PBS (NISSUI) (3600 μL) was immediately added thereto. The mixture was subjected to ultrafiltration using Amicon Ultra (Millipore). The centrifugation conditions were 1000 G, 25° C. An operation including addition of 3200 μL of PBS after centrifugation for 10 min was repeated twice and the sample was concentrated to about 500 μL. The concentrate was diluted with PBS to a mass of 1000 mg to give a 0.5 mM (lipid concentration) emulsion. The particle size distribution of the produced emulsion solution was measured by dynamic light scattering similarly to Example 1.
The volume median diameter and the surface potential were measured using the dynamic light scattering (Zetasizer Nano; Malvern) in the same manner as in Example 1.
The average particle size of the produced particles was measured in the same manner as in Example 1 and the results are shown in Table 7.

[3] = O/W emulsion cationic lipid:DOPE:Cholesterol=3:4:3, 4-Methylumbelliferon 10 mol %, DMG-PEG2000 10 mol %, DSG-PEG2000 2.5 mol %
[4] = O/W emulsion cationic lipid:DOPE:Cholesterol=3:4:3, 4-Methylumbelliferon 10 mol %, DMG-PEG2000 10 mol %, DSG-PEG2000 2.5 mol %, 1 mM, 25° C.
[5] = B-2:helper lipid:Cholesterol=3:4:3, 15 mol % DMG-PEG2000, malic acid buffer pH 4.0
[6] = B-2:helper lipid:Cholesterol=3:4:3, 15 mol % DMG-PEG2000, pH 3.0
[7] = B-2:helper lipid:Cholesterol=3:4:3, 15 mol % DMG-PEG2000, pH 4.0

Molecule | Log Pow [1] | further results
CCCCCCCCCCCCCCCC(=O)Oc1ccc2c(C)cc(=O)oc2c1 [4-methylumbelliferone palmitate] | 7.92 | 
CCCCC/C=C\C/C=C\CCCCCCCC(=O)OCCCN(C)CCSSCCN(C)CCCOC(=O)CCCCCCC/C=C\C/C=C\CCCCC [B-2-3] |  | PdI [2, 3]: 0.419; volume median diameter [2, 4]: 34.3 nm
CCCCCCCC/C=C\CCCCCCCC(=O)OC[C@H](COP(=O)([O-])OCC[N+](C)(C)C)OC(=O)CCCCCCC/C=C\CCCCCCCC [DOPC, dioleoylphosphatidylcholine] |  | volume median diameter ([2]; B-2:helper lipid:Cholesterol=3:4:3, 15 mol % DMG-PEG2000, malic acid buffer pH 3.0): 41.5 nm; volume median diameter [2, 5]: 40.5 nm; volume median diameter ([2]; B-2:helper lipid:Cholesterol=3:4:3, 15 mol % DMG-PEG2000, malic acid buffer pH 5.0): 45.6 nm; PdI [2, 6]: 0.319; PdI [2, 7]: 0.214; PdI ([2]; B-2:helper lipid:Cholesterol=3:4:3, 15 mol % DMG-PEG2000, pH 5.0): 0.196; volume median diameter ([2]; B-2:helper lipid:Cholesterol=3:4:3, irrespective of pH (3.0-5.0)): about 40 nm
CCCCCCCC/C=C\CCCCCCCC(=O)OC[C@H](COP(=O)(O)OCCN)OC(=O)CCCCCCC/C=C\CCCCCCCC [DOPE, dioleoylphosphatidylethanolamine] |  | volume median diameter [2, 5]: 90.2 nm; PdI [2, 6]: 0.191; PdI [2, 7]: 0.078
CCCCC/C=C\C/C=C\CCCCCCCC(=O)OCCN1CCN(CCSSCCN2CCN(CCOC(=O)CCCCCCC/C=C\C/C=C\CCCCC)CC2)CC1 [L-PZ4C2] |  | PdI [2, 3]: 0.092; volume median diameter [2, 4]: 75.8 nm
COc1ccc2c(c1)c(CC(=O)OCC(=O)O)c(C)n2C(=O)c1ccc(Cl)cc1 [acemetacin] | 4.49 | 
CCC(=O)OCC(=O)[C@@]1(OC(=O)CC)[C@@H](C)C[C@H]2[C@@H]3CCC4=CC(=O)C=C[C@]4(C)[C@@]3(Cl)[C@@H](O)C[C@@]21C [beclopetasone propionate] | 4.07 | 
COC(=O)C1=C(C)NC(C)=C(C(=O)OC2CCCN(Cc3ccccc3)C2)C1c1cccc([N+](=O)[O-])c1 (centres unmarked) [benidipine] | 5.56 | 
CCc1oc2ccccc2c1C(=O)c1cc(Br)c(O)c(Br)c1 [benzbromarone] | 6.65 | 
CCCCC(=O)O[C@]1(C(=O)CO)[C@@H](C)C[C@H]2[C@@H]3CCC4=CC(=O)C=C[C@]4(C)[C@@]3(F)[C@@H](O)C[C@@]21C [betamethasone valerate] | 4.14 | 
c1ccc(-c2ccc(C(c3ccccc3)n3ccnc3)cc2)cc1 (centres unmarked) [bifonazole] | 4.69 | 
CCOc1nc2cccc(C(=O)OC(C)OC(=O)OC3CCCCC3)c2n1Cc1ccc(-c2ccccc2-c2nnn[nH]2)cc1 (centres unmarked) [candesartancilexetil] | 7.21 | 
COc1ccccc1OCCNCC(O)COc1cccc2[nH]c3ccccc3c12 (centres unmarked) [carvedilol] | 4.07 | 
CCCCCCCCCCCCCCCC(=O)OC[C@@H](NC(=O)C(Cl)Cl)[C@H](O)c1ccc([N+](=O)[O-])cc1 [chloramphenicol palmitate] | 8.69 | 
[H]/N=C(\N/C(=N/[H])NCCCCCCNC(=N)NC(=N)Nc1ccc(Cl)cc1)Nc1ccc(Cl)cc1 [chlorhexidine] | 4.58 | 
C=C1CC[C@H](O)C/C1=C/C=C1\CCC[C@]2(C)[C@@H]([C@H](C)CCCC(C)C)CC[C@@H]12 [cholecalciferol] | 9.08 | 
CCC(C)(Oc1ccc(C2(c3ccc(OC(C)(CC)C(=O)O)cc3)CCCCC2)cc1)C(=O)O (centres unmarked) [clinofibrate] | 6.33 | 
Clc1ccccc1C(c1ccccc1)(c1ccccc1)n1ccnc1 [clotrimazole] | 4.93 | 
C#C[C@]1(O)CC[C@H]2[C@@H]3CCC4=Cc5oncc5C[C@]4(C)[C@H]3CC[C@@]21C [danazol] | 4.94 | 
CC(C)(C)c1ccc(C(=O)CCCN2CCC(OC(c3ccccc3)c3ccccc3)CC2)cc1 [ebastine] | 6.81 | 
C=C1CC[C@H](O)C/C1=C/C=C1\CCC[C@]2(C)[C@@H]([C@H](C)/C=C/[C@H](C)C(C)C)CC[C@@H]12 [ergocalciferol] | 9.15 | 
C[C@]12CC[C@@H]3c4ccc(OC(=O)c5ccccc5)cc4CC[C@H]3[C@@H]1CC[C@@H]2O [estradiol benzoate] | 5.10 | 
C#C[C@]1(O)CC[C@H]2[C@@H]3CCc4cc(O)ccc4[C@H]3CC[C@@]21C [ethinylestradiol] | 4.11 | 
CCCCCCC(=O)OCCN1CCN(CCCN2c3ccccc3Sc3ccc(C(F)(F)F)cc32)CC1 [fluphenazine enanthate] | 7.29 | 
COc1ccc2c(c1)c(CC(=O)O)c(C)n2C(=O)c1ccc(Cl)cc1 [indomethacin] | 4.25 | 

Molecule | Log Pow [1] | further results
O=C(COCCOCCOCC(=O)Nc1c(I)cc(I)c(C(=O)O)c1I)Nc1c(I)cc(I)c(C(=O)O)c1I [iotroxatic acid] | 4.32 | 
CC(C)Oc1ccc2c(=O)c(-c3ccccc3)coc2c1 [ipriflavone] | 4.25 | 
CCC(C)n1ncn(-c2ccc(N3CCN(c4ccc(OCC5COC(Cn6cncn6)(c6ccc(Cl)cc6Cl)O5)cc4)CC3)cc2)c1=O (centres unmarked) [itraconazole] | 5.00 | 
Cc1cccc(Nc2ccccc2C(=O)O)c1C [mefenamic acid] | 4.83 | 
CC(C)=CCC/C(C)=C/CC/C(C)=C/CC/C(C)=C/CC1=C(C)C(=O)c2ccccc2C1=O [menatetrenone] | 8.79 | 
COC1(O[C@H]2CC[C@H]3[C@@H]4CC[C@H]5C[C@@H]6S[C@@H]6C[C@]5(C)[C@H]4CC[C@]23C)CCCC1 [mepitiostane] | 6.89 | 
c1ccc2c(c1)Sc1ccccc1N2CC1CN2CCC1CC2 (centres unmarked) [mequitazine] | 5.20 | 
C#C[C@]1(O)CC[C@H]2[C@@H]3CCc4cc(OC)ccc4[C@H]3CC[C@@]21C [mestranol] | 4.94 | 
CCC(=O)O[C@@H]1CC(=O)O[C@H](C)C/C=C/C=C/[C@H](OC(C)=O)[C@H](C)C[C@H](CC=O)[C@H](O[C@@H]2O[C@H](C)[C@@H](O[C@H]3C[C@@](C)(OC(C)=O)[C@@H](OC(=O)CC)[C@H](C)O3)[C@H](N(C)C)[C@H]2O)[C@H]1OC [midecamycin acetate] | 5.58 | 
CC(C)=CCN1CCC2(C)c3cc(O)ccc3CC1C2C (centres unmarked) [pentazocine] | 4.15 | 
CC1=C(C/C=C(\C)CCC[C@H](C)CCC[C@H](C)CCCC(C)C)C(=O)c2ccccc2C1=O [phytonadione] | 10.31 | 
O=c1[nH]c2ccccc2n1C1CCN(CCCC(c2ccc(F)cc2)c2ccc(F)cc2)CC1 [pimozide] | 5.76 | 
COC(=O)[C@H]1[C@H]2C[C@@H]3c4[nH]c5cc(OC)ccc5c4CCN3C[C@H]2C[C@@H](OC(=O)c2cc(OC)c(OC)c(OC)c2)[C@@H]1OC [reserpine] | 4.45 | 
CCCCCCCCCCCCCCCC(=O)OC/C=C(C)/C=C/C=C(C)/C=C/C1=C(C)CCCC1(C)C [retinol palmitate] | 14.32 | 
CCCC(=O)OC[C@@H](OC(=O)CCC)[C@@H](OC(=O)CCC)[C@H](Cn1c2nc(=O)[nH]c(=O)c-2nc2cc(C)c(C)cc21)OC(=O)CCC [riboflavin butyrate] | 6.25 | 
Cc1cc(O)c2c(c1)O[C@@]1(C)CC[C@H]3C(C)(C)CCC[C@]34CO[C@@H]2[C@H]41 [siccanin] | 6.10 | 
C=CC[C@@H]1/C=C(\C)C[C@H](C)C[C@H](OC)[C@H]2O[C@@](O)(C(=O)C(=O)N3CCCC[C@H]3C(=O)O[C@H](/C(C)=C/[C@@H]3CC[C@@H](O)[C@H](OC)C3)[C@H](C)[C@@H](O)CC1=O)[C@H](C)C[C@@H]2OC [tacrolimus] | 4.79 | 
CC(=O)Oc1c(C)c(C)c2c(c1C)CCC(C)(CCC[C@H](C)CCC[C@H](C)CCCC(C)C)O2 (some centres unmarked) [tocopheryl acetate] | 10.69 | 
Cc1cccc(N(C)C(=S)Oc2ccc3ccccc3c2)c1 [tolnaftate] | 5.14 | 
COC1=C(OC)C(=O)C(C/C=C(\C)CC/C=C(\C)CC/C=C(\C)CC/C=C(\C)CC/C=C(\C)CC/C=C(\C)CC/C=C(\C)CC/C=C(\C)CC/C=C(\C)CCC=C(C)C)=C(C)C1=O [ubidecarenone] | 19.12 | 
C[C@H](CCC(=O)O)[C@H]1CC[C@H]2[C@@H]3[C@@H](O)C[C@@H]4C[C@H](O)CC[C@]4(C)[C@H]3CC[C@]12C [ursodeoxycholic acid] | 4.76 | 
CC(C(=O)O)c1ccc2c(c1)CC(=O)c1ccccc1S2 (centres unmarked) [zaltoprofen] | 4.25 | 
retinol acetate | 7.19 | 
tocopherol | 10.96 | 
